Results taken from patent publication US11304419B2, “Methods to induce heat stress tolerance in plants” (Valent BioSciences LLC, priority 2020, dated 2022).

Assays:
Type in all cases: in vivo
Williams 82 soybean = assay: Heat stress tolerance in soybean following ACC application; conditions: heat stress 34/30° C. six days; for Canopy Density / Fresh Weight / Height / Total Dry Weight / Δ Canopy Density: n = 5; for Canopy Density, percent increase over stress control / Fresh Weight, percent increase over stress control / Height, percent increase over stress control / Total Dry Weight, percent increase over stress control / Δ Canopy Density, percent increase over stress control: vs stress control; for Canopy Density, percent increase over treatment control / Fresh Weight, percent increase over treatment control / Height, percent increase over treatment control / Total Dry Weight, percent increase over treatment control / Δ Canopy Density, percent increase over treatment control: vs treatment control
Method: Williams 82 soybean was seeded into ProMix BX (Premier Horticulture) and grown in a greenhouse. […] Next, spray applications of […] (n=5) were made using a track sprayer on Oct. 9, 2020. Following spraying, plants were moved to a growth cabinet under the following conditions: 24/18 C day night temperatures under a 16/8 light dark period. Next, 3 days following treatment, half of the plants were transferred to a second growth cabinet at 34/30° C. day/night temperature under a 16/8-hour light/dark photoperiod for six days. These conditions constitute early season heat stress. Plants were then destructively harvested and measured for fresh weight, canopy density, Δ canopy density, total dry weight and height.

[1] = tested on: dwarf variety of Brassica napus; assay: Heat stress tolerance in Brassica napus following ACC application; conditions: heat stress 36/30° C. seven days; for Seed Number per Pod / Seed Yield per Pod / Single Seed Weight: n = 10; for Seed Number per Pod, percent increase over treatment control / Seed Yield per Pod, percent increase over treatment control / Single Seed Weight, percent increase over treatment control: vs treatment control
Method: A dwarf variety of Brassica napus commonly used as an experimental model for the canola variety of B. napus was seeded into ProMix BX (Premier Horticulture) and grown in a greenhouse. […] Following spraying, plants were moved to a growth cabinet under the following conditions: 24/18 C day night temperatures under a 16/8 light dark period. Next, 2 days following treatment, half of the plants were transferred to a second growth cabinet at 36/30° C. day/night temperature under a 16/8-hour light/dark photoperiod for seven days. These conditions constitute early season heat stress. At all times flowers and pods were pruned to keep the number of pods to about 10. Plants were then destructively harvested and measured for seed yield, seed numbers, seed yield per pod, seed number per pod and single seed weight.

Apogee wheat = assay: Heat stress tolerance in wheat following ACC application during flowering; conditions: heat stress 36/30° C. 7 days, n = 8
Method: 24 pots of Apogee wheat were grown in a greenhouse under 3 consecutive growing conditions. First, the wheat was planted in ProMix® growth media and grown for about 6 weeks in a growth cabinet at 24/18° C. day/night temperature under a 16/8 hour light/dark photoperiod. Plants were at Feekes stage 10.4-10.5 (flowering stage) following the first set of growth conditions. Next, spray applications of 0, 30 or 100 ppm ACC (n=8) were made using a tank sprayer. Next, 2 days following treatment, the plants were transferred to a growth chamber at 36/30° C. day/night temperature under a 16/8-hour light/dark photoperiod for 7 days. These conditions constitute significant heat stress. Finally, the plants were then returned to growth chamber at 24/18° C. day/night temperature under a 16/8-hour light/dark photoperiod for about 5 additional weeks. Plants were then destructively harvested and measured for total spike number, spike weight, grain weight, yield per spike, A spike number and harvest index. A spike number is calculated by subtracting the number of reproductive tillers at treatment from the number of reproductive tillers at harvest. An increase in reproductive tillers is indicative of an increase in reproductive success. Harvest index is calculated by dividing pounds of grain by the total pounds of above ground biomass.

[2] = 30 ppm ACC spray at Feekes stage 10.4-10.5
[3] = 100 ppm ACC spray at Feekes stage 10.4-10.5

## NC1(C(=O)O)CC1 [ACC, 1-amino-1-cyclopropanecarboxylic acid]
Williams 82 soybean; 10 ppm ACC spray at V1
  Canopy Density: 13.24
  Fresh Weight: 19.85 grams
  Height: 41.07 cm
  Total Dry Weight: 3.15 grams
  Δ Canopy Density: 7.77
Williams 82 soybean; 10 ppm ACC
  Canopy Density, percent increase over stress control: (83.9%)
  Fresh Weight, percent increase over stress control: (32.8%)
  Height, percent increase over stress control: (30.1%)
  Total Dry Weight, percent increase over stress control: (18.9%)
  Δ Canopy Density, percent increase over stress control: (256.4%)
  Canopy Density, percent increase over treatment control: [13.6%]
  Fresh Weight, percent increase over treatment control: [6.5%]
  Height, percent increase over treatment control: [7.9%]
  Total Dry Weight, percent increase over treatment control: [6.8%]
  Δ Canopy Density, percent increase over treatment control: [22.4%]
Williams 82 soybean; 30 ppm ACC spray at V1
  Canopy Density: 12.68
  Fresh Weight: 20.33 grams
  Height: 38.25 cm
  Total Dry Weight: 3.25 grams
  Δ Canopy Density: 7.19
Williams 82 soybean; 30 ppm ACC
  Canopy Density, percent increase over stress control: (76.1%)
  Fresh Weight, percent increase over stress control: (36.0%)
  Height, percent increase over stress control: (21.1%)
  Total Dry Weight, percent increase over stress control: (22.6%)
  Δ Canopy Density, percent increase over stress control: (229.8%)
  Canopy Density, percent increase over treatment control: [8.7%]
  Fresh Weight, percent increase over treatment control: [9.1%]
  Height, percent increase over treatment control: [0.5%]
  Total Dry Weight, percent increase over treatment control: [10.2%]
  Δ Canopy Density, percent increase over treatment control: [13.2%]
Williams 82 soybean; 100 ppm ACC spray at V1
  Canopy Density: 10.90
  Fresh Weight: 19.25 grams
  Height: 37.95 cm
  Total Dry Weight: 3.08 grams
  Δ Canopy Density: 5.36
Williams 82 soybean; 100 ppm ACC
  Canopy Density, percent increase over stress control: (51.4%)
  Fresh Weight, percent increase over stress control: (28.8%)
  Height, percent increase over stress control: (20.2%)
  Total Dry Weight, percent increase over stress control: (16.2%)
  Δ Canopy Density, percent increase over stress control: (145.9%)
  Canopy Density, percent increase over treatment control: [−6.5%]
  Fresh Weight, percent increase over treatment control: [3.3%]
  Height, percent increase over treatment control: [−0.3%]
  Total Dry Weight, percent increase over treatment control: [4.4%]
  Δ Canopy Density, percent increase over treatment control: [−15.6%]
[1]; 10 ppm ACC spray at flowering
  Seed Number per Pod: 14.8
  Seed Yield per Pod: 0.029 grams
  Single Seed Weight: 0.0019 grams
[1]; 10 ppm ACC
  Seed Number per Pod, percent increase over treatment control: [6.5%]
  Seed Yield per Pod, percent increase over treatment control: [0%]
  Single Seed Weight, percent increase over treatment control: [−9.5%]
[1]; 30 ppm ACC spray at flowering
  Seed Number per Pod: 15.1
  Seed Yield per Pod: 0.033 grams
  Single Seed Weight: 0.0021 grams
[1]; 30 ppm ACC
  Seed Number per Pod, percent increase over treatment control: [8.6%]
  Seed Yield per Pod, percent increase over treatment control: [13.8%]
  Single Seed Weight, percent increase over treatment control: [0%]
[1]; 100 ppm ACC spray at flowering
  Seed Number per Pod: 17.4
  Seed Yield per Pod: 0.036 grams
  Single Seed Weight: 0.0020 grams
[1]; 100 ppm ACC
  Seed Number per Pod, percent increase over treatment control: [25.2%]
  Seed Yield per Pod, percent increase over treatment control: [24.1%]
  Single Seed Weight, percent increase over treatment control: [−4.8%]
[1]; 300 ppm ACC spray at flowering
  Seed Number per Pod: 15.6
  Seed Yield per Pod: 0.030 grams
  Single Seed Weight: 0.0019 grams
[1]; 300 ppm ACC
  Seed Number per Pod, percent increase over treatment control: [12.2%]
  Seed Yield per Pod, percent increase over treatment control: [3.4%]
  Single Seed Weight, percent increase over treatment control: [−9.5%]
Apogee wheat; [2]
  Grain Weight: 3.1 grams
  Harvest Index: 0.32
  Spike Weight: 5.39 grams
  Total Spike Number: 6.25
  Yield per Spike: 0.5 grams
  Δ Spike Number: 1.75
Apogee wheat; [3]
  Grain Weight: 3.37 grams
  Harvest Index: 0.34
  Spike Weight: 5.69 grams
  Total Spike Number: 6.5
  Yield per Spike: 0.53 grams
  Δ Spike Number: 2.13
